Data on six compounds can be found in ChEMBL document CHEMBL2385071, “Synthesis and biological investigation of coumarin piperazine (piperidine) derivatives as potential multireceptor atypical antipsychotics” (J Med Chem, 2013).

For data set [1], the target named is T1, 5-hydroxytryptamine receptor 1A (Rattus norvegicus, UniProt P19327).
T1 sequence (P19327 whole entry): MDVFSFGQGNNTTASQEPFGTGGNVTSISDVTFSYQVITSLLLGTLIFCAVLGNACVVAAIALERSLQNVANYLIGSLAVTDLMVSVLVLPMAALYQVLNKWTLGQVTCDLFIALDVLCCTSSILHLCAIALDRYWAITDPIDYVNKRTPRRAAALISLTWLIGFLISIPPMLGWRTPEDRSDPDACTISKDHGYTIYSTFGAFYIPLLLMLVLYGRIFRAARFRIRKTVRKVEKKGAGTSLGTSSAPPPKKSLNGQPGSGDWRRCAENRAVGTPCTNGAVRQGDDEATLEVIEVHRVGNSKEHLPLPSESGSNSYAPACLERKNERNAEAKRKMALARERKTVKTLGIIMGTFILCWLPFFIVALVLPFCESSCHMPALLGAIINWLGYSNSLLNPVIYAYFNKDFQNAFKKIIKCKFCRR
The data set is described as follows: biochemical.
Description: Displacement of [3H]8-OH-DPAT from 5HT1A receptor in rat cerebral cortex after 30 mins by liquid scintillation counting analysis

For data set [2], the target named is D(2) dopamine receptor (Rattus norvegicus, UniProt P61169).
Data set [3] addresses T2, 5-hydroxytryptamine receptor 2C (Rattus norvegicus, UniProt P08909).
T2 sequence (P08909 whole entry): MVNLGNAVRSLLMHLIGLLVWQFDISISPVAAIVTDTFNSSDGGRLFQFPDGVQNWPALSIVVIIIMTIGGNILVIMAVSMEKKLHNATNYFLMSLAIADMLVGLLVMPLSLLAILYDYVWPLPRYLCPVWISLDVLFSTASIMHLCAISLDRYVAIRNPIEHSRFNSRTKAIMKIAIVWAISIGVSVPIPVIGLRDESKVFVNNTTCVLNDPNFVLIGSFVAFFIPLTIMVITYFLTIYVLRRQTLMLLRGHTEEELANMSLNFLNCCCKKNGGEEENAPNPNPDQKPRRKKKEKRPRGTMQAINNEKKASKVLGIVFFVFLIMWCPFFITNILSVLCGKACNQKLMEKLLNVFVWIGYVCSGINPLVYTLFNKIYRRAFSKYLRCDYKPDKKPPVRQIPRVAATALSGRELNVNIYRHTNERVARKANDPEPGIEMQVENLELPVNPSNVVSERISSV
Nature of the data set: biochemical.
Description: Displacement of [3H]mesulergine from 5HT2C receptor in rat cerebral cortex after 15 mins by liquid scintillation counting analysis

The target in data set [4] is D(3) dopamine receptor (Rattus norvegicus, UniProt P19020). Nature of the data set: biochemical.
For data set [5], the target named is Voltage-gated inwardly rectifying potassium channel KCNH2 (Homo sapiens, UniProt Q12809).
Description: Inhibition of human ERG expressed in HEK293 cells by electrophysiology assay
The next data set concerns the target Histamine H1 receptor (Cavia porcellus, UniProt P31389). Nature of the data set: Displacement of [3H]mepyramine from histamine H1 receptor in guinea pig cerebellum after 60 mins by liquid scintillation counting analysis.
The nature of data set [6]: in vivo. As to conditions: mouse, po.
For data set [7], the target named is T3, 5-hydroxytryptamine receptor 2A (Homo sapiens, UniProt P28223).
Description: Antagonist activity at 5HT2A receptor (unknown origin) expressed in CHOK1 cells coexpressing Galpha15 assessed as inhibition of agonist-induced response incubated for 60 mins in incubator followed by 15 mins at room temperature by FLIPR assay
Data set [8] can be described thus: Acute toxicity in mouse assessed as mortality after 24 hrs. Type of data set: organism-based. The following applies: in vivo.
In data set [9] the target is T4, 5-hydroxytryptamine receptor 1A (Homo sapiens, UniProt P08908).
T4 sequence (P08908 whole entry): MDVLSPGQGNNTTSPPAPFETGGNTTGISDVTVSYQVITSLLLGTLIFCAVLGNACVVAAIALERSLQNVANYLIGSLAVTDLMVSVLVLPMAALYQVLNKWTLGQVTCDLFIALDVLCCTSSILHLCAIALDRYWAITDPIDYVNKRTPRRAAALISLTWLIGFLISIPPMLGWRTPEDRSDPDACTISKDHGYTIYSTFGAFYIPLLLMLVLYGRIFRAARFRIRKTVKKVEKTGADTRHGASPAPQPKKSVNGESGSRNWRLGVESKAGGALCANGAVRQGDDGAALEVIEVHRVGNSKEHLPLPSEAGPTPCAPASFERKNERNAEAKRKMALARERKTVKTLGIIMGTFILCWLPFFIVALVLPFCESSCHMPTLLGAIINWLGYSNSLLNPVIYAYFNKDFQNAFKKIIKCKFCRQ
Description: Antagonist activity at 5HT1A receptor (unknown origin) expressed in CHOK1 cells coexpressing Galpha15 assessed as inhibition of agonist-induced response incubated for 60 mins in incubator followed by 15 mins at room temperature by FLIPR assay

Data set [10] concerns the target T3, 5-hydroxytryptamine receptor 2A. The data set is described as follows: Antagonist activity at 5HT2A receptor (unknown origin) expressed in CHOK1 cells coexpressing Galpha15 assessed as inhibition of agonist-induced response at 10 uM incubated for 60 mins in incubator followed by 15 mins at room temperature by FLIPR assay relative to control. In kind it is cell-based. The following applies: CHO-K1.

Data set [11] is filed under the species Mus musculus. The data set is described as follows: animal or person. The following applies: po.
Description: (§1) Antipsychotic activity in po dosed mouse assessed as reduction in apomorphine-induced climbing behavior administered for 30 mins prior to apomorphine-challenge measured at 10 to 30 mins post-dose
The species named for data set [12] is Mus musculus. The data set is described as follows: animal or person. The following applies: po. This is another data set of the same source.
The nature of data set [13]: AUC (0 to infinity) in rat at 5 mg/kg, iv by HPLC-MS analysis. Type of data set: ADME, organism-based. Also noted: time infinity, dose 5 mg/kg, route intravenous. As to conditions: plasma.
Data set [14] is described as follows: Oral bioavailability in rat at 12 mg/kg by HPLC-MS analysis. Type of data set: ADME, organism-based. The following applies: in vivo.
Data set [15] is described as follows: AUC (0 to 12 hrs) in rat at 5 mg/kg, iv by HPLC-MS analysis. In kind it is ADME, organism-based. Also noted: time < 12 hr, dose 5 mg/kg, route intravenous. As to conditions: plasma.
Data set [16] deals with D(3) dopamine receptor (Homo sapiens, UniProt P35462).
Data set [17] in a line: Tmax in rat at 12 mg/kg, po by HPLC-MS analysis. Type of data set: ADME, organism-based. Set-up: dose 12 mg/kg, route oral. The following applies: in vivo.
Data set [18] has as its system Mus musculus.
Description: as §1
For data set [19], the system named is Mus musculus. The source holds these as a separate data set.
The next data set has as its system Rattus norvegicus. Nature of the data set: Toxicity in rat assessed as QT interval prolongation/cardiac liability at 5 to 60 mg/kg, po by electrophysiology assay. Type of data set: organism-based. Also noted: dose 5-60 mg/kg, route oral. The following applies: in vivo.
In data set [20] the target is D(2) dopamine receptor (Homo sapiens, UniProt P14416). The data set is described as follows: Agonist activity at dopamine D2 receptor (unknown origin) expressed in CHOK1 cells coexpressing Galpha15 at 10 uM by FLIPR assay relative to control. Type of data set: cell-based. The following applies: CHO-K1.
Data set [21] is described as follows: AUC (0 to 12 hrs) in rat at 12 mg/kg, po by HPLC-MS analysis. Also noted: time < 12 hr, dose 12 mg/kg, route oral. In kind it is ADME, organism-based. As to conditions: plasma.
A short description of data set [22]: AUC (0 to infinity) in rat at 12 mg/kg, po by HPLC-MS analysis. In kind it is ADME, organism-based. Set-up: time infinity, dose 12 mg/kg, route oral. As to conditions: plasma.
Data set [23] can be described thus: in vivo. The following applies: mouse, po. The source holds these as a separate data set.
Description: Therapeutic Index, ratio of ED50 for catalepsy in mouse to ED50 for antipsychotic activity in po dosed mouse assessed as reduction in apomorphine-induced climbing behavior
The nature of data set [24]: Half life in rat at 5 mg/kg, iv by HPLC-MS analysis. Type of data set: ADME, organism-based. Set-up: dose 5 mg/kg, route intravenous. As to conditions: in vivo.
A short description of data set [25]: Cmax in rat at 12 mg/kg, po by HPLC-MS analysis. Type of data set: ADME, organism-based. Set-up: dose 12 mg/kg, route oral. As to conditions: in vivo.
Data set [26] deals with T3, 5-hydroxytryptamine receptor 2A. The data set is described as follows: Agonist activity at 5HT2A receptor (unknown origin) expressed in CHOK1 cells coexpressing Galpha15 at 10 uM by FLIPR assay relative to control. Type of data set: cell-based. As to conditions: CHO-K1.

T3 sequence (P28223 whole entry): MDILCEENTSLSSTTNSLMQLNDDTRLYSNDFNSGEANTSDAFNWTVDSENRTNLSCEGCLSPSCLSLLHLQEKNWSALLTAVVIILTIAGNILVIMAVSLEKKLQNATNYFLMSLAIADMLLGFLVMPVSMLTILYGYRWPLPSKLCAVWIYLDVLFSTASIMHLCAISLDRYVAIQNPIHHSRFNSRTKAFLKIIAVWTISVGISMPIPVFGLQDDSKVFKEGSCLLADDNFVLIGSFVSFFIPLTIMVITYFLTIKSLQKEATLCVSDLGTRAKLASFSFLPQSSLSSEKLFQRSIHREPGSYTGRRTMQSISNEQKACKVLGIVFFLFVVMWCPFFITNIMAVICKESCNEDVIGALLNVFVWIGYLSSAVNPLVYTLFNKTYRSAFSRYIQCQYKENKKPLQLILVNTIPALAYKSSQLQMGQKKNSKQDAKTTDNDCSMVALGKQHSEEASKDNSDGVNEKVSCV
Sequence of Voltage-gated inwardly rectifying potassium channel KCNH2 (Q12809 whole entry): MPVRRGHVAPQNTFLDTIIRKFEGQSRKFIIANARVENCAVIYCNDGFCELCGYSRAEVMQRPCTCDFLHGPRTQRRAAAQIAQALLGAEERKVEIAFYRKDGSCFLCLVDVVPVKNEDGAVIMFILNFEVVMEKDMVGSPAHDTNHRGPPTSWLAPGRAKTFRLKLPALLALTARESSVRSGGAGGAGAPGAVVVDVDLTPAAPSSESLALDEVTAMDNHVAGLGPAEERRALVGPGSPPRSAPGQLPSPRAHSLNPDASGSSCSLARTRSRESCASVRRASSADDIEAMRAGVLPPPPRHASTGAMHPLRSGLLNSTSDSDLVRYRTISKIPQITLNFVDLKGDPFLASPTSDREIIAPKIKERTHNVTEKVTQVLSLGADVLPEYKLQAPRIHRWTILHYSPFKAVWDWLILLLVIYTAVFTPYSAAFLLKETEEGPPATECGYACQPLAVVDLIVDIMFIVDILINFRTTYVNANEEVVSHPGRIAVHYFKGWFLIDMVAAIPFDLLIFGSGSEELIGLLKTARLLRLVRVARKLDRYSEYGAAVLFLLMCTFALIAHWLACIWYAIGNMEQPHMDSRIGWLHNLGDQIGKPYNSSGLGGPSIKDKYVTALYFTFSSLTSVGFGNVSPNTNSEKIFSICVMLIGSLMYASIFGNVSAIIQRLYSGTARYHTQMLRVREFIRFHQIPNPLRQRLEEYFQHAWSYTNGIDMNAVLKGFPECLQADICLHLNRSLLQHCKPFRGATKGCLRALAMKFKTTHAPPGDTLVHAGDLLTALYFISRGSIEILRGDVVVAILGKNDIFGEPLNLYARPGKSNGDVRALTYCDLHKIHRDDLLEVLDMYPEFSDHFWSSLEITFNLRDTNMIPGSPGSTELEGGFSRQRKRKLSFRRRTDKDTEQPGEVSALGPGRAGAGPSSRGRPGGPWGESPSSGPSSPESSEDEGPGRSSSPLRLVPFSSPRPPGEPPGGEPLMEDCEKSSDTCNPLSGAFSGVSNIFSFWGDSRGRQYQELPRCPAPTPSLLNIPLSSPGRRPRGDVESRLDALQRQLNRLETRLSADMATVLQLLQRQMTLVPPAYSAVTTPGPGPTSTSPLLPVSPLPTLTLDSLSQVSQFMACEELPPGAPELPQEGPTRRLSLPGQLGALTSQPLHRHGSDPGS
Sequence of Histamine H1 receptor (P31389 whole entry): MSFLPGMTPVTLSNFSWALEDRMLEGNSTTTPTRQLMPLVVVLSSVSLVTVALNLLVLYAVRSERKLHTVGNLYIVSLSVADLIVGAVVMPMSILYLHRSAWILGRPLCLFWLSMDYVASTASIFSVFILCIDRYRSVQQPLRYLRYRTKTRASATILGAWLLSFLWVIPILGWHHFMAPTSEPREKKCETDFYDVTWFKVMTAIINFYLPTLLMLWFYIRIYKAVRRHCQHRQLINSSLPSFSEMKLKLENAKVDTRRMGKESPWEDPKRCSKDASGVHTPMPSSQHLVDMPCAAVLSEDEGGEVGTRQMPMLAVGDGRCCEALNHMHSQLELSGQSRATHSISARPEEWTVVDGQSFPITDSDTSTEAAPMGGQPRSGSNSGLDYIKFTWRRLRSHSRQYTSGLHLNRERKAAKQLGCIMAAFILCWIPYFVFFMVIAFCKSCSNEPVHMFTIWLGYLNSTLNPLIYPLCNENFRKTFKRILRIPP
Sequence of D(2) dopamine receptor (Rattus norvegicus, UniProt P61169) (P61169 whole entry): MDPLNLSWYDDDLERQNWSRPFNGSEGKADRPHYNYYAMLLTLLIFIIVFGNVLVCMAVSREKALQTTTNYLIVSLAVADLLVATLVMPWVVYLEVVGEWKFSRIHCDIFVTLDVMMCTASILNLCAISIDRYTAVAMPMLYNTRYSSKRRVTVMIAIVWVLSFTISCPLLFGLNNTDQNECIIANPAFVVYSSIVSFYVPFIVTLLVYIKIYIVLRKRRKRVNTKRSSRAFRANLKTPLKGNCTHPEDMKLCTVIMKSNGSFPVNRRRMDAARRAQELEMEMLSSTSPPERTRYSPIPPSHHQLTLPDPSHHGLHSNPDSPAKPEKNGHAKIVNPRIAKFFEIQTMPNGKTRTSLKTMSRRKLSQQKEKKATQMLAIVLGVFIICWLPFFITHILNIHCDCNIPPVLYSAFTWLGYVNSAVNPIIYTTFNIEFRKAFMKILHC
Sequence of D(3) dopamine receptor (Rattus norvegicus, UniProt P19020) (P19020 whole entry): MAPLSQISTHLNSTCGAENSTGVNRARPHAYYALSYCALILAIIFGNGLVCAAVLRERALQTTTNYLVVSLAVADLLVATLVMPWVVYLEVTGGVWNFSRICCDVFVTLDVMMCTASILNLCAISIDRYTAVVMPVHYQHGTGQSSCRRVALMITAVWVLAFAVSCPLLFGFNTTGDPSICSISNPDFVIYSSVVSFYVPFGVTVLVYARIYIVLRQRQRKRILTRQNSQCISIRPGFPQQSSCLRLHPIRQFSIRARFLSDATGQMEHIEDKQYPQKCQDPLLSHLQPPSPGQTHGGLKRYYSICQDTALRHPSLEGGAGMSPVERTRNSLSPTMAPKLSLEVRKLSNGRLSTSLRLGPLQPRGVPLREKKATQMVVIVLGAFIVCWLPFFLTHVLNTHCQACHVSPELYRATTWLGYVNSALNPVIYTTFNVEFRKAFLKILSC
Sequence of D(2) dopamine receptor (Homo sapiens, UniProt P14416) (P14416 whole entry): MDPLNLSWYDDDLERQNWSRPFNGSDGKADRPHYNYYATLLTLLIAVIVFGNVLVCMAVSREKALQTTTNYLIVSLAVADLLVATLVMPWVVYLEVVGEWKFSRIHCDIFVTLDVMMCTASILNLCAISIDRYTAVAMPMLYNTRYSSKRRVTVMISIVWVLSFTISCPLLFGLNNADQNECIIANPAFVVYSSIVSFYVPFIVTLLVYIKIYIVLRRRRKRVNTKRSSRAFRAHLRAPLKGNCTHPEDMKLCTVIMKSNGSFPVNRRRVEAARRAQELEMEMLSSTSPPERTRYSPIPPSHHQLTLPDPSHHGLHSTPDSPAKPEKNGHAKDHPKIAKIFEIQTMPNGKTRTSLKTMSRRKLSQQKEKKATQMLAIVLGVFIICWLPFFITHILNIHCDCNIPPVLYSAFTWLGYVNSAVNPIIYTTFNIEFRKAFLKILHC
Sequence of D(3) dopamine receptor (Homo sapiens, UniProt P35462) (P35462 whole entry): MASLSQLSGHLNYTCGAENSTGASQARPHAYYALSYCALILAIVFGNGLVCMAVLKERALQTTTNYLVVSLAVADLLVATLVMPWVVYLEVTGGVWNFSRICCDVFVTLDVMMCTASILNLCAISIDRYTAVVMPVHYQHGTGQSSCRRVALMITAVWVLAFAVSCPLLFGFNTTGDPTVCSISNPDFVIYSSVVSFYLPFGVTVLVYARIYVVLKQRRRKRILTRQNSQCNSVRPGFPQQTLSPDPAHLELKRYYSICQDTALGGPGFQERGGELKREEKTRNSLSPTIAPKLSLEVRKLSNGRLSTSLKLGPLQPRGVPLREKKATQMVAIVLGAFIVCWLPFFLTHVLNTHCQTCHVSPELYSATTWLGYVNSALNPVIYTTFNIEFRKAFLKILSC

Turning to `Cc1c(C)c2ccc(OCCCCN3CCC(c4noc5cc(F)ccc45)CC3)cc2oc1=O`, the Ki in [1] amounted to 16.7 nM; at D(2) dopamine receptor [2] it was 4 nM; in data set [3], 389 nM; on D(3) dopamine receptor [4], 30.6 nM; on Histamine H1 receptor it was 550 nM. In data set [5], it took 195 nM to reach half-maximal inhibition (IC50).

Consider `Cc1cc(=O)oc2c(Cl)c(OCCCCN3CCC(c4noc5cc(F)ccc45)CC3)ccc12`, for which the Ki in [1] turned out to be 3.3 nM; at D(2) dopamine receptor [2] it was 2.6 nM; in data set [3], 1700 nM; on D(3) dopamine receptor [4] it was 4.3 nM; on Histamine H1 receptor it was 1130 nM. Besides, the selectivity ratio worked out at 221 in the data set “in vivo [6]” and 215 in “in vivo [23]”. The IC50 in data set [7] turned out to be 39.2 nM; in data set [9], 11.8 nM; on D(3) dopamine receptor [16] it was 24.8 nM; in data set [5] it was 1590 nM. Moreover, the LD50 at 24 h in [8] was more than 2000 mg/kg. The inhibition in data set [10] was found to be 99.1%. For the same compound, the ED50 in the data set filed under Mus musculus [11] worked out at 0.14 mg/kg; in the data set filed under Mus musculus [12], 0.32 mg/kg. For the same compound, the total exposure AUC(0-inf) in data set [13] was found to be 914 ng·h/mL; in [22], 703 ng·h/mL. The compound also gave a bioavailability in data set [14] of 32%. The AUC(0-t) at 12 h in [15] is 822 ng·h/mL; in data set [21], 644 ng·h/mL. In addition, the time of peak concentration (Tmax) in [17] worked out at 3 h. Further, the Activity result in the data set on Mus musculus [18] was “Dose-dependent effect”; with Mus musculus [19], “Dose-dependent effect”; with Rattus norvegicus, “Non-toxic”; at D(2) dopamine receptor [20], 2%; in data set [26], 10%. For the same compound, the half-life in data set [24] was 5 h. This compound gave a Cmax in data set [25] of 72.1 ng/mL.

For the compound `Cc1cc(=O)oc2cc(OCCCCN3CCC(c4noc5cc(F)ccc45)CC3)ccc12`, the inhibition constant (Ki) is 3.5 nM in [1]; 4.9 nM at D(2) dopamine receptor [2]; 11.9 nM in [3]; 71.3 nM at D(3) dopamine receptor [4]; 19.6 nM on Histamine H1 receptor. In data set [5], the concentration for half-maximal inhibition (IC50) came to 159 nM.

As to `COc1ccccc1N1CCN(CCCCOc2ccc3c(C)cc(=O)oc3c2)CC1`, the Ki in [1] is 0.012 nM; on D(2) dopamine receptor [2] it was 1.4 nM; in data set [3], 1000 nM; on D(3) dopamine receptor [4] it was 4.8 nM; at Histamine H1 receptor, more than 10000 nM. The compound further gave a concentration for half-maximal inhibition (IC50) in [5] of 31 nM.

Regarding `O=c1cc(-c2ccccc2)c2ccc(OCCCCN3CCC(c4noc5cc(F)ccc45)CC3)cc2o1`, the Ki in data set [1] turned out to be 12.7 nM; on D(2) dopamine receptor [2] it was 14.8 nM; in data set [3], 256 nM; on D(3) dopamine receptor [4], 72.7 nM; on Histamine H1 receptor it was 38.1 nM.

Consider `Cc1cc(=O)oc2c(C)c(OCCCCN3CCC(c4noc5cc(F)ccc45)CC3)ccc12`, for which the Ki in [1] was 12.9 nM; on D(2) dopamine receptor [2] it was 5.3 nM; in data set [3], 68.9 nM; on D(3) dopamine receptor [4], 13.6 nM; on Histamine H1 receptor, 21.3 nM. In [5], this compound displayed a half-maximal inhibitory concentration (IC50) of 226 nM.
